{
  "source": "patent US9132138B2",
  "about": "“Method for the treatment of multiple sclerosis” (CASI Pharmaceuticals, Inc., priority 2012, dated 2015)",
  "key": {"purified CD4^+ T cells": {"tested_on": "purified CD4^+ T cells", "assay": "Proliferation of purified CD4+ T cells by 3H-thymidine incorporation", "assay_type": "cell-based, C57/BL6 mice", "details": "24 hours or 48 hours post-stimulation", "protocol": "(§1) FIGS. 2A-2E, show proliferation and activation of T cells are inhibited by 2ME2. FIG. 2A, CD4^+ T cells were pre-treated with the indicated concentrations of 2ME2 and stimulated with plate-bound anti-CD3/28 or PMA/iono. Proliferation was assayed 24 hours (left) or 48 hours (right) later by 3H-thymidine incorporation. FIG. 2B, CD4^+ and CD8^+ T cells were stimulated with anti-CD3/28 in the presence of increasing concentrations of 2ME2. CD25 expression was assessed at 6 hours or 24 hours post-stimulation by flow cytometry. FIG. 2C, Quantification of CD25 expression in purified CD4^+ T cells pre-treated with increasing concentrations of 2ME2, and stimulated with anti CD3/28 or PMA/iono for 6 or 24 hours. […] Viability was determined 24 hours or 48 hours post-stimulation by flow cytometry. […] Proliferation was determined 24 hours or 48 hours later by 3H-thymidine incorporation. […]\n(§2) Purified CD4^+ T cells were stimulated with plate-bound anti-CD3 (clone 2C11, BD, 10 ng/ml) plus anti-CD28 (clone 37.51, BD, 100 ng/ml). […] CD25 and CD69 expression was determined by flow cytometry (FACSCanto II, BD) and analyzed using FloJo software (Treestar Inc). Proliferation was assessed by 3H-thymidine incorporation. Viability and upregulation of cell surface markers on activated T cells were assessed by flow cytometry using Annexin V and propridium iodide. […]"}, "[1]": {"tested_on": "LPS-induced TNFα production", "assay": "Serum TNFα in mice injected with LPS", "assay_type": "in vivo", "details": "2ME2-pretreated mice injected with LPS"}, "T cells [2]": {"tested_on": "T cells", "assay": "T cell activation markers CD25 and CD69 by flow cytometry", "assay_type": "cell-based, C57/BL6 mice", "details": "anti-CD3/28 or PMA/iono", "protocol": "as §1, §2"}, "T cells [3]": {"tested_on": "T cells", "assay": "T cell viability by flow cytometry (Annexin V and propidium iodide)", "assay_type": "cell-based, C57/BL6 mice", "protocol": "FIGS. 2A-2E, show proliferation and activation of T cells are inhibited by 2ME2. FIG. 2A, CD4^+ T cells were pre-treated with the indicated concentrations of 2ME2 and stimulated with plate-bound anti-CD3/28 or PMA/iono. Proliferation was assayed 24 hours (left) or 48 hours (right) later by 3H-thymidine incorporation. FIG. 2B, CD4^+ and CD8^+ T cells were stimulated with anti-CD3/28 in the presence of increasing concentrations of 2ME2. CD25 expression was assessed at 6 hours or 24 hours post-stimulation by flow cytometry. FIG. 2C, Quantification of CD25 expression in purified CD4^+ T cells pre-treated with increasing concentrations of 2ME2, and stimulated with anti CD3/28 or PMA/iono for 6 or 24 hours. FIG. 2D, T cells were pretreated with the indicated doses of 2ME2 and left untreated (left) or stimulated using plate-bound anti-CD3/28 (right). Viability was determined 24 hours or 48 hours post-stimulation by flow cytometry. FIG. 2E, human PBMC were activated with anti-human CD3/28 in the presence of increasing concentrations of 2ME2. Proliferation was determined 24 hours or 48 hours later by 3H-thymidine incorporation. Data are mean±SD of triplicate determinations and are representative of three separate donors. For FIG. 2A and FIG. 2E, data shown are the mean±SD of triplicate determinations, and are representative of 3 experiments. For FIG. 2B and FIG. 2C data is representative of two experiments.\nCells were pre-incubated with various concentrations of 2ME2 (Entremed) or vehicle (DMSO) for 30 minutes at 37° C.\nas §2"}, "[4]": {"tested_on": "SEB-induced cytokine production", "parameters": "species or system C57/BL6 mice", "details": "mouse, in vivo"}, "NFAT": {"tested_on": "NFAT", "assay": "Gaussia luciferase reporter assay in Jurkat cells", "assay_type": "cell-based", "details": "anti-CD3/28, 5 hours", "protocol": "(§3) FIG. 4A, purified T cells pre-treated with 2ME2 (50 μM) were stimulated with PMA/iono for the indicated times. Whole cell lysates were subjected to immunoblotting to detect the indicated proteins. FIG. 4B, nuclear lysates were analyzed by EMSA to detect DNA binding to NF-κB or AP-1. FP, free probe. FIG. 4C, purified T cells or B cells were pre-treated with vehicle (−) or 50 μM 2ME2 (+) and were stimulated with PMA/iono for 30 or 60 minutes (left), or with anti-CD3/28 or anti-IgM/CD40 for 24 hours (right). Nuclear fractions of lymphocytes were analyzed by immunoblotting to detect nuclear translocation of NFATc1. Lamin A, nuclear protein loading control. NS; non-specific band. […]\n(§4) Luciferase Assays were performed using Jurkat cells harboring a stably integrated Gaussia-luciferase reporter gene under the control of NF-κB or NFAT binding sites (Termed NFAT/NF-κB-GLuc reporter Jurkat). Gaussia luciferase contains a secretion peptide sequence mediating quantitative secretion of active enzyme into the surrounding medium. […] Luciferase activity was measured in 96-well plates using a Orion L microplate Luminometer (Berthold Detection Systems) with an integration time of 3.0 seconds. In parallel, cell viability was determined using the CellTiter-Glo® Luminescent Cell Viability Assay (Promega) and normalized Gluc activity was calculated as the ratio between Gluc activity and cell viability counts."}, "NF-κB [5]": {"tested_on": "NF-κB", "assay": "Gaussia luciferase reporter assay in Jurkat cells", "assay_type": "cell-based", "details": "anti-CD3/28, 5 hours", "protocol": "as §3, §4"}, "NF-κB [6]": {"tested_on": "NF-κB", "assay": "EMSA of T cell nuclear extracts", "assay_type": "cell-based, C57/BL6 mice", "details": "2ME2 50 μM, PMA/iono", "protocol": "(§5) FIG. 4A, purified T cells pre-treated with 2ME2 (50 μM) were stimulated with PMA/iono for the indicated times. Whole cell lysates were subjected to immunoblotting to detect the indicated proteins. FIG. 4B, nuclear lysates were analyzed by EMSA to detect DNA binding to NF-κB or AP-1. FP, free probe. FIG. 4C, purified T cells or B cells were pre-treated with vehicle (−) or 50 μM 2ME2 (+) and were stimulated with PMA/iono for 30 or 60 minutes (left), or with anti-CD3/28 or anti-IgM/CD40 for 24 hours (right). Nuclear fractions of lymphocytes were analyzed by immunoblotting to detect nuclear translocation of NFATc1. Lamin A, nuclear protein loading control. NS; non-specific band. For FIGS. 4A-4C, data are representative of at least two independent experiments. FIG. 4D, stably transfected NFAT and NF-κB Jurkat luciferase reporter cell lines were preincubated with 2ME2 for 30 minutes, and stimulated via crosslinking of anti-CD3/28 antibodies with goat anti-mouse antibodies (GaM). 5 hours later, secreted luciferase activity indicates relative transcriptional activity. Data is reported as normalized luciferase activity and is representative of 3 independent experiments.\n(§6) Nuclear extracts of T cells stimulated with PMA (10 ng/ml)+calcium ionophore A23187 (iono, Sigma) (50 ng/ml) for 30 or 60 minutes were prepared according to a standard protocol. […]"}, "AP-1": {"tested_on": "AP-1", "assay": "EMSA of T cell nuclear extracts", "assay_type": "cell-based, C57/BL6 mice", "details": "2ME2 50 μM, PMA/iono", "protocol": "as §5, §6"}, "ERβ": {"target": "ERβ (Homo sapiens, UniProt Q92731)", "sequence (Q92731 whole entry, species assumed)": "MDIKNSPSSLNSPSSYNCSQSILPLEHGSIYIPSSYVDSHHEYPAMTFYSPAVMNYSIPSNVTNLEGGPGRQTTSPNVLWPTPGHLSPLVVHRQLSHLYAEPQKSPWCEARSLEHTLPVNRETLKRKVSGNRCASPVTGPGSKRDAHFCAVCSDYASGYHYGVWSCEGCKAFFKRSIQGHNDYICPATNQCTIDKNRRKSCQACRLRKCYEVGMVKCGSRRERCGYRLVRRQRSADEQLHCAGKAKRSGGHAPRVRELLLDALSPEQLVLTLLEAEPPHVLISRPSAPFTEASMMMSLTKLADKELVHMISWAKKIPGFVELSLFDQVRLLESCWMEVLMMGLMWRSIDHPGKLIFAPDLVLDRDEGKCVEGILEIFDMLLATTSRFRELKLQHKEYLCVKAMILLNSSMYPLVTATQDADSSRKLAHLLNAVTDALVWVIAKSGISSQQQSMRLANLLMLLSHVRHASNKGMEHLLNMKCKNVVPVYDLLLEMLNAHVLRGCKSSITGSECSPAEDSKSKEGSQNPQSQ", "details": "cited from earlier work"}},
  "data": [
    {"smiles": "COc1cc2c(cc1O)CC[C@@H]1[C@@H]2CC[C@]2(C)[C@@H](O)CC[C@@H]12", "note": "[2ME2, 2-Methoxyestradiol]", "values": [
      {"measurement": "anti-CD3/28 or PMA+iono-dependent proliferation", "setting": "purified CD4^+ T cells", "value": "dose-dependent inhibition"},
      {"measurement": "serum TNFα levels", "setting": "[1]", "value": "no reduction"},
      {"measurement": "up-regulation of CD25", "setting": "T cells [2]", "value": "blocked up-regulation"},
      {"measurement": "up-regulation of CD69", "setting": "T cells [2]", "value": "blocked up-regulation"},
      {"measurement": "apoptosis in activated T cells", "setting": "T cells [3]; 24 hours", "value": "none was apparent"},
      {"measurement": "apoptosis in un-stimulated T cells", "setting": "T cells [3]; 24 hours", "value": "only a modest 2ME2-dependent increase in apoptosis"},
      {"measurement": "viability of activated T cells", "setting": "T cells [3]; 48 hours post-stimulation", "value": "reduced viability"},
      {"measurement": "serum IL-6", "setting": "[4]", "value": "significantly less"},
      {"measurement": "serum TNFα", "setting": "[4]", "value": "significantly less"},
      {"measurement": "transcriptional activation of NFAT via TCR ligation (normalized luciferase activity)", "setting": "NFAT", "value": "dramatically inhibited"},
      {"measurement": "NF-κB-dependent transcriptional activity (normalized luciferase activity)", "setting": "NF-κB [5]", "value": "no effect"},
      {"measurement": "binding of NF-κB to DNA", "setting": "NF-κB [6]", "value": "normal"},
      {"measurement": "AP-1 binding to DNA", "setting": "AP-1", "value": "modest increase"},
      {"measurement": "lower affinity than estradiol for ERβ", "setting": "ERβ", "value": 3200, "unit": "fold"}
    ]}
  ]
}
